According to patent US12398139B2, “Modulators of AMPA receptor signaling” (Centre for Addiction and Mental Health, priority 2019, dated 2025):

Tests used:
[1] = tested on: HEK-293 cells expressing GAPDH and GluR2; test: AMPA mediated cell-death assay (CellTox Green Cytotoxicity Assay); assay type: cell-based; details: Homo sapiens, HEK293, AMPA 500 μM, CTZ 100 μM, CellTox Green fluorescence, read-out: Potency, inhibition of AMPA-mediated neurotoxicity (IC50, concentration at which 50% of cell death was prevented)
Protocol: The ability of compounds to inhibit AMPA-mediated neurotoxicity was determined using the CellTox™ Green Cytotoxicity Assay (G8743) kit from Promega. In this assay, GAPDH and GluR2 are expressed in HEK-293 cells. AMPA (500 μM) was added to induce an AMPAR-mediated cell death signalling cascade. This is initiated by the GAPDH-GluR2 complex formation followed by the nuclear translocation of the complex, where it activates the p53-mediated cell death pathway. The presence of a compound which can block dimerization of GAPDH and GluR2 will prevent the nuclear translocation and the cell death and, thus this assay is an effective measure of the ability of a compound to prevent AMPA-mediated neurotoxicity and thus show therapeutic benefit in the treatment of MS.
The assay was performed as per the manufacture's instruction. Briefly, 293 cells stably expressing GluR1 and GluR2VENUS were transfected with pcDNA-RluC-GAPDH. AMPA (500 μM) were added to induce the cell death. CTZ (100 μM) was added to prevent AMPAR desensitization. Candidate molecules were added before the AMPA treatment to test its protective effect. Untreated cells and AMPA treated group were used as negative and positive control respectively. CellTox™ Green Reagent (˜5×) was then added to achieve a final concentration of 1× and cells were incubated at room temperature for 15 minutes (shielded from ambient light). The fluorescence intensity at 485-500 nmEx/520-530 nmEm was then measured and calculated as the percentage value of the positive control. The concentration at which 50% of cell death was prevented (IC50) was determined for each compound.
The potency was measured using the cell death assay described above.

GluR2/GAPDH complex = target: T1, GluR2/GAPDH complex (Homo sapiens, UniProt P42262); test: Surface plasmon resonance target engagement assay (competitive GluR2-Venus affinity with GAPDH); details: SPR, captured GluR2-VENUS, 100 nM GAPDH peptide, compound top concentration 10 μM; read-out: Potency, GluR2 Binding Affinity (competitive inhibition of GluR2-GAPDH interaction)
T1 construct: host or cells: HEK293 cells stably transfected with GluR2-VENUS (lysate)
T1 sequence (P42262 25-883, species assumed, one chain of several): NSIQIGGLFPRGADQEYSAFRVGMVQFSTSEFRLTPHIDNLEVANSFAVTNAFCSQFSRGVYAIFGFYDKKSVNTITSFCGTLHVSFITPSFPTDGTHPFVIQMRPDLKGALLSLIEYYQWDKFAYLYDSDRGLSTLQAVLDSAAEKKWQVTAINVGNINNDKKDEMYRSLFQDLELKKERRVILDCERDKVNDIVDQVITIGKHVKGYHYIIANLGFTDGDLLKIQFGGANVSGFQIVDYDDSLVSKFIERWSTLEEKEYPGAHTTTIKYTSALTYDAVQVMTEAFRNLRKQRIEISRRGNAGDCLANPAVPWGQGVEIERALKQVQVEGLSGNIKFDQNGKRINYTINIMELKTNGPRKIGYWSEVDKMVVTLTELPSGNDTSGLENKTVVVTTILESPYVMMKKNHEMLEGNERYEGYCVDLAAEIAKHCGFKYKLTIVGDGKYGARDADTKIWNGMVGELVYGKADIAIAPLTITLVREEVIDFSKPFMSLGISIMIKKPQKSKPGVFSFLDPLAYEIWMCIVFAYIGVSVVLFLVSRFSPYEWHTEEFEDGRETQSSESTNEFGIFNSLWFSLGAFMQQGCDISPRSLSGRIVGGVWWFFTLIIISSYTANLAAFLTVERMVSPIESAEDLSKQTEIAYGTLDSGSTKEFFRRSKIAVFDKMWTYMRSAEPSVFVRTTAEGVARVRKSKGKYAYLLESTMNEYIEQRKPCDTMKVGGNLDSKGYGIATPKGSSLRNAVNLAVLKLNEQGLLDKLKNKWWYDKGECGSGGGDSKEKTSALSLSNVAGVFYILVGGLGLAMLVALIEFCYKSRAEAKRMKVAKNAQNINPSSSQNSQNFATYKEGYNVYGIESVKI
Protocol: This is one of the most commonly used techniques to study modulation of protein-protein interactions by small molecule ligands, providing real-time measurement of binding affinities and association/dissociation kinetics of complexes (compound/protein) in a label-free environment. The ability of our lead compound to disrupt the interaction of GluR2/GAPDH complex was measured by the binding affinity. Compounds were analyzed for competitive GluR2-Venus protein affinity (with GAPDH recombinant protein) using a Reichert 2SPR system. The surface was first charged with nickel (500 μM NiCl2 in HBS-P buffer for 300 s at a flow rate of 5 μL/min). The dextran surface was then activated with a 1:1 mixture of N-ethyl-N-dimethylaminopropylcarbodiimide (EDC) and N-hydroxysuccinimide (NHS) on line for final concentrations of EDC and NHS of 37.5 mg/mL and 5.8 mg/mL, respectively, for 420 s at a flow rate of 25 μL/min. Anti-VENUS antibody was first immobilized by capture onto a 500 KDa CM Dextran sensor chip (Reichert), proceeded by activation of the carboxymethylated dextran surface for mild amine coupling, followed by a final blocking injection of 1 M ethanolamine, pH 8.5. GluR2-VENUS (lysate of HEK293 cells stably transfected with GluR2-VENUS) was then captured for 900 s at a flow rate of 25 μL/min followed by a final blocking injection of 2% BSA, for 300 s at a flow rate of 5 μL/min.
The surface plasmon resonance affinity assay was carried out in a PBS buffer consisting of 0.05% Tween 20. For affinity measurements, compound solutions were prepared using ten three-fold serial dilutions in running buffer from a 10 μM top concentration (prepared from DMSO stocks) along with a zero (running buffer) control, mixed with 100 nM GAPDH peptide (Sigma Aldrich). A flow rate of 30 μl/min was used with a 420 s contact time (using high performance injection parameters) followed by a 120 s dissociation phase. Results were analyzed by subtracting the signals of the reference surface from the signals for the protein-bound surfaces and performing a solvent correction. Competitive binding responses were normalized throughout the screen to the percentage of inhibition of the respective small molecule compound. Three independent experiments were performed.
The binding affinity was measured using the surface plasmon resonance assay described above.

[2] = Rat liver microsomal stability assay; assay type: in vitro ADME; details: both sexes, pooled rat liver microsomes, pH 7.4; rat liver microsomes 0.5 mg/mL, 3 μM compound, NADPH, 37° C., 45 min; read-out: T1/2, rat liver microsomal stability
Protocol: (§1) Metabolic stability of 2-pyrrolopyrazoles derivatives was measured by determination of the rate of compound disappearance when incubated in the presence of human or rat liver microsomes. Liver microsomes are prepared from the endoplasmic reticulum of hepatocytes and are the primary source of the most important enzymes (cytochrome P450) involved in drug metabolism. Study of drug stability in the presence of liver microsomes is accepted as a valuable model permitting rapid prediction of in vivo drug stability.
(§2) Human or rat liver microsomes were obtained from a commercial source. Test compounds (3 μM) were incubated with pooled liver microsomes (male and female). Samples were incubated for a 45 minute period and removed at 5 time points and test compounds were analyzed by LC-MS/MS
(§3) Microsomes (final protein concentration 0.5 mg/mL), 0.1 M phosphate buffer pH 7.4, and test compound (final concentration 3 μM; diluted from 10 mM stock solution to give a final DMSO concentration of 0.25%) were incubated at 37° C. prior to the addition of NADPH (final concentration 1 mM) to initiate the reaction. The final incubation volume was 25 μL. A control incubation was included for each compound tested, where 0.1 M phosphate buffer pH 7.4 was added instead of NADPH. The control compounds testosterone and 7-hydroxycoumarin were included in each experiment and all incubations were performed singularly for each compound.
(§4) Each compound was incubated for 0, 5, 15, 30, and 45 minutes. The control (minus NADPH) was incubated for 45 minutes only. The reactions were stopped by the addition of 50 μL methanol containing internal standard at the appropriate time points. The incubation plates were centrifuged at 2500 rpm for 20 minutes at 4° C. to precipitate the protein.
(§5) Following protein precipitation, the sample supernatants were combined in cassettes of up to 4 compounds and analysed using standard LC-MS/MS conditions.
(§6) From a plot of the natural logarithm of the peak area ratio (i.e., the ratio of compound peak area: internal standard peak area) against time, the gradient of the line was determined. Subsequently, half-life and intrinsic clearance were calculated using the equations below: Eliminated rate constant (k)=(−gradient). Half-life (t1/2) (min)=[…]. Intrinsic Clearance (CLint) (μL/min/[…])=(V×0.693)/t1/2. wherein V=Incubation volume (μL/mg microsomal protein).
(§7) Biological half-life values (t1/2) were determined for several 2-pyrrolopyrazoles, as well as the closely-related reference 1-pyrrolopyrazole, using the human liver microsomal stability assay described above.

[3] = Human liver microsomal stability assay; assay type: in vitro ADME; details: both sexes, pooled human liver microsomes, pH 7.4; human liver microsomes 0.5 mg/mL, 3 μM compound, NADPH, 37° C., 45 min; read-out: T1/2, human liver microsomal stability
Protocol: as §1, §2, §3, §4, §5, §6, §7

EAE mice = test: Experimental autoimmune encephalomyelitis (EAE) model for multiple sclerosis; assay type: in vivo, mice (C57BL/6)

Row | SMILES | IC50 (GluR2/GAPDH complex) [µM] | half-life at 3 μM [2] [min] | half-life at 3 μM [3] [min] | IC50 [1] [µM] | mean clinical score compared with the no treatment group (EAE mice; 5 or 10 mg/kg i.p. daily from day 11~12, two-way ANOVA at least P<0.05) | neurological function (EAE mice; i.p. administration from day 11~12 after immunization (1~2 days after symptoms))
1 | CN(C(=O)c1cncc(N2Cc3cn(Cc4ccc(F)cc4)nc3C2)n1)C1CCCC1 [Compound 228, N-Cyclopentyl-6-(2-(4-fluorobenzyl)-2,6-dihydropyrrolo[3,4-c]pyrazol-5(4H)-yl)-N-methylpyrazine-2-carboxamide] |  | < 1 | 8 | 0.042 |  | 
2 | CN(C)C(=O)c1cncc(N2Cc3cn(Cc4ccc(F)cc4)nc3C2)n1 [Compound 155, 6-(2-(4-Fluorobenzyl)-2,6-dihydropyrrolo[3,4-c]pyrazol-5(4H)-yl)-N,N-dimethylpyrazine-2-carboxamide] | 0.0004 |  |  | 0.035 | significantly lower | greatly improves neurological function
3 | CN(C)C(=O)c1ccnc(N2Cc3cn(Cc4ccc(F)cc4)nc3C2)n1 [Compound 210, 2-(2-(4-Fluorobenzyl)-2,6-dihydropyrrolo[3,4-c]pyrazol-5(4H)-yl)-N,N-dimethylpyrimidine-4-carboxamide] | 0.033 |  | 749 | 0.082 |  | 
4 | CN(C(=O)c1ccnc(N2Cc3cn(Cc4ccc(F)cc4)nc3C2)n1)C1CCCCC1 [Compound 230, N-Cyclohexyl-2-(2-(4-fluorobenzyl)-2,6-dihydropyrrolo[3,4-c]pyrazol-5(4H)-yl)-N-methylpyrimidine-4-carboxamide] |  | < 1 |  | 0.087 |  | 

Now from value to compound, other results behind:

Row | IC50 (GluR2/GAPDH complex) [µM] | half-life at 3 μM [2] [min] | half-life at 3 μM [3] [min] | SMILES | IC50 [1] [µM] | mean clinical score compared with the no treatment group (EAE mice; 5 or 10 mg/kg i.p. daily from day 11~12, two-way ANOVA at least P<0.05) | neurological function (EAE mice; i.p. administration from day 11~12 after immunization (1~2 days after symptoms))
5 | 0.008 | 14 |  | O=C(c1cccc(N2Cc3cn(Cc4ccc(F)cc4)nc3C2)c1)N1CCCCC1 [Compound 242, (3-(2-(4-Fluorobenzyl)-2,6-dihydropyrrolo[3,4-c]pyrazol-5(4H)-yl)phenyl)(piperidin-1-yl)methanone] | 0.079 |  | 
6 |  | < 1 | 7 | CN(C(=O)c1ccnc(N2Cc3cn(Cc4ccc(F)cc4)nc3C2)n1)C1CCCC1 [Compound 226, N-Cyclopentyl-2-(2-(4-fluorobenzyl)-2,6-dihydropyrrolo[3,4-c]pyrazol-5(4H)-yl)-N-methylpyrimidine-4-carboxamide] | 0.042 |  | 
7 | 0.091 |  | > 1000 | O=C(NC1CCCCC1)c1cccc(N2Cc3cn(Cc4ccc(F)cc4)nc3C2)c1 [Compound 216, N-Cyclohexyl-3-(2-(4-fluorobenzyl)-2,6-dihydropyrrolo[3,4-c]pyrazol-5(4H)-yl)benzamide] | 0.057 |  | 
8 | 0.048 |  |  | O=C(NC1CCCC1)c1cccc(N2Cc3cn(Cc4ccc(F)cc4)nc3C2)c1 [Compound 215, N-Cyclopentyl-3-(2-(4-fluorobenzyl)-2,6-dihydropyrrolo[3,4-c]pyrazol-5(4H)-yl)benzamide] | 0.0035 |  | 
